Experiments:
Assay in all cases: Kinase panel study
Format in all cases: biochemical
Settings in all cases: read-out: Percentage of inhibition; for inhibition at 1 µM: 1000nM; for inhibition at 10 µM: 10000nM
[1] = biological target: T1, BRSK1 (SAD1) (Homo sapiens, UniProt Q8TDC3)
T1 construct: purchased Thermo Fisher Scientific
T1 sequence (Q8TDC3 1-778): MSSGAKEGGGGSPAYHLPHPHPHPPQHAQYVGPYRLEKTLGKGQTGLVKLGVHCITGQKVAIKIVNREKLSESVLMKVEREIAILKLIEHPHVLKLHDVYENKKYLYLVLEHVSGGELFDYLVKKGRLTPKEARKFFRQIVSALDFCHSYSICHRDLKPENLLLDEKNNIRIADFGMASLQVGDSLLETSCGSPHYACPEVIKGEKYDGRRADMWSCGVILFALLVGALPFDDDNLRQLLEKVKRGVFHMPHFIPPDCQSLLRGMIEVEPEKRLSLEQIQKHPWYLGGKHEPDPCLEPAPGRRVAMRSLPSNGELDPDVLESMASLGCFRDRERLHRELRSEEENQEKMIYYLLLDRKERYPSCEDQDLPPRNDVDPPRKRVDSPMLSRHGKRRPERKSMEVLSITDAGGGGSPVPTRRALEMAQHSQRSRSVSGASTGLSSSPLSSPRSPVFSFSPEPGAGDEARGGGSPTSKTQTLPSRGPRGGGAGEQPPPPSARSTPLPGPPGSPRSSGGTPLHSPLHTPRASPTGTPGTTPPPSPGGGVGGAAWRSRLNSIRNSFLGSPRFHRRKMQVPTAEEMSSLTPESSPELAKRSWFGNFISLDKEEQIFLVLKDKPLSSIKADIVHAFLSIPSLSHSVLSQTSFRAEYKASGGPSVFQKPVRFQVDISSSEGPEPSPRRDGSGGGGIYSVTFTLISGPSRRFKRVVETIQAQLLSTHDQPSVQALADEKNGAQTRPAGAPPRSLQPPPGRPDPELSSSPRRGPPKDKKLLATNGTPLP
How it was run: (§1)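 A commercial kinase profiling service ran the assays according to its ZLyte or Adapta standard protocols. Compound was present at 10 µM or 1 µM, and kinase activity loss was expressed as percent inhibition.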

[2] = biological target: T2, FGFR3 (Homo sapiens, UniProt P22607)
T2 construct: purchased Thermo Fisher Scientific
How it was run: as §1

[3] = biological target: T3, GSK3A (GSK3 alpha) (Homo sapiens, UniProt P49840)
T3 construct: purchased Thermo Fisher Scientific
How it was run: as §1

[4] = biological target: T4, MAPKAPK2 (Homo sapiens, UniProt P49137)
T4 construct: purchased Thermo Fisher Scientific
How it was run: as §1

[5] = biological target: T5, PLK1 (Homo sapiens, UniProt P53350)
T5 construct: purchased Thermo Fisher Scientific
How it was run: as §1

[6] = biological target: T6, PLK3 (Homo sapiens, UniProt Q9H4B4)
T6 construct: purchased Thermo Fisher Scientific
How it was run: as §1

[7] = biological target: T7, PRKG2 (PKG2) (Homo sapiens, UniProt Q13237)
T7 construct: purchased Thermo Fisher Scientific
T7 sequence (Q13237 1-762): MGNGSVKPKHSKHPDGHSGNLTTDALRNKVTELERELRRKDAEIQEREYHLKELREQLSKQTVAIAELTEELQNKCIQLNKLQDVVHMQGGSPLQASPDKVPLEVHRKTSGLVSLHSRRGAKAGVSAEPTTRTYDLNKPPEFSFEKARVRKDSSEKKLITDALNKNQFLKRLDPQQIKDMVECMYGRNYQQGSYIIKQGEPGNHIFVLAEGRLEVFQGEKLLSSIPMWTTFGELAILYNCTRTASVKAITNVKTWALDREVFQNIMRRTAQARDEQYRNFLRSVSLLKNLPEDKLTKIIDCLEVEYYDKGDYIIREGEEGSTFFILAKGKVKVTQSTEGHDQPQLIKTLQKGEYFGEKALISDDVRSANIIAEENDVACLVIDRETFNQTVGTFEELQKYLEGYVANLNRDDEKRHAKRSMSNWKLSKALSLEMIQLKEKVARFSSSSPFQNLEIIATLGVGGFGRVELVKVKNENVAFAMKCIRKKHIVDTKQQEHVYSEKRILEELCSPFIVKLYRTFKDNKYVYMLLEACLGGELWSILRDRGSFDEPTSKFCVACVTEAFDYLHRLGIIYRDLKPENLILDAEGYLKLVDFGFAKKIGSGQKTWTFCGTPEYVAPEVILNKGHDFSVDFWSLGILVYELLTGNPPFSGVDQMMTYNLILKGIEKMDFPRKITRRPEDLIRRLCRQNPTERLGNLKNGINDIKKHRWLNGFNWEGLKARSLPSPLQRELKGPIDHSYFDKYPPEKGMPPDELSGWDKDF
How it was run: as §1

[8] = biological target: T8, ROCK1 (Homo sapiens, UniProt Q13464)
T8 construct: purchased Thermo Fisher Scientific
How it was run: as §1

[9] = biological target: T9, SPHK1 (Homo sapiens, UniProt Q9NYA1)
T9 construct: purchased Thermo Fisher Scientific
How it was run: as §1

T5 sequence (P53350 whole entry): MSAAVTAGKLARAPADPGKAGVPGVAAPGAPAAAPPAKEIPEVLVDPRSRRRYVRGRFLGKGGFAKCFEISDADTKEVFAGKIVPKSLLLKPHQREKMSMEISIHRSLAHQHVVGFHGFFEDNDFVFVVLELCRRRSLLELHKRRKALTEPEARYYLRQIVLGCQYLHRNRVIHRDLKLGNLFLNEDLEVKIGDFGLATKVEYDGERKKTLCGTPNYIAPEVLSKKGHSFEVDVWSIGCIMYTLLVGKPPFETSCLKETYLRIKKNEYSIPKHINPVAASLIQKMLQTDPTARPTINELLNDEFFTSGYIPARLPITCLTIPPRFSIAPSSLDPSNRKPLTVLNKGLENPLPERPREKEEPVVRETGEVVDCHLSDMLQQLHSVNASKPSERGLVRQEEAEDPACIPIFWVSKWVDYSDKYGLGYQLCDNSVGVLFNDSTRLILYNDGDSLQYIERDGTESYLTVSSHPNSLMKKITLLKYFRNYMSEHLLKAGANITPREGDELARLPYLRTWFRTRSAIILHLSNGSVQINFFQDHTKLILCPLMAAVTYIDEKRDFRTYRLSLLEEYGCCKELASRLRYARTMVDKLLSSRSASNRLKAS
T2 sequence (P22607 23-806): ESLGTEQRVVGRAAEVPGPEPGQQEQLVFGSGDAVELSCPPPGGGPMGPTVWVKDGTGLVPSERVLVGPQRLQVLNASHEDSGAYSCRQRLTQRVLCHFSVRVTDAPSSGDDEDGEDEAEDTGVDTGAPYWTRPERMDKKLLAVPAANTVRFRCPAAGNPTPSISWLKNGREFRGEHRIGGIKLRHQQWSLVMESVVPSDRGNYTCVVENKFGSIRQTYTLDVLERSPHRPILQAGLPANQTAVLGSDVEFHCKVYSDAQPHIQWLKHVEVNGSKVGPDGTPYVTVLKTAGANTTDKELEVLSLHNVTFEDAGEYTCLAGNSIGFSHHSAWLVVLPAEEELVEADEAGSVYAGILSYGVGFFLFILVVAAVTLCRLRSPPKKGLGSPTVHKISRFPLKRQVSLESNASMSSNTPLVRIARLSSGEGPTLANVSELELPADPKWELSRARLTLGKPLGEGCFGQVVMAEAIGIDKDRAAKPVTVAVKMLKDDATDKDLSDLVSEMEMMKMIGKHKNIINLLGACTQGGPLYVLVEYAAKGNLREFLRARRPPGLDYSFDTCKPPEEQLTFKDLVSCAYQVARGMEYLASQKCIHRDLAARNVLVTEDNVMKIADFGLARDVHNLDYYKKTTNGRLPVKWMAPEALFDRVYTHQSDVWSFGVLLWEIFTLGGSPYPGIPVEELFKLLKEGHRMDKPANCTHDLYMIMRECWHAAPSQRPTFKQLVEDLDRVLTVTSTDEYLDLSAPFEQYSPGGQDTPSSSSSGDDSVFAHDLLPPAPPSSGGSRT
T3 sequence (P49840 whole entry): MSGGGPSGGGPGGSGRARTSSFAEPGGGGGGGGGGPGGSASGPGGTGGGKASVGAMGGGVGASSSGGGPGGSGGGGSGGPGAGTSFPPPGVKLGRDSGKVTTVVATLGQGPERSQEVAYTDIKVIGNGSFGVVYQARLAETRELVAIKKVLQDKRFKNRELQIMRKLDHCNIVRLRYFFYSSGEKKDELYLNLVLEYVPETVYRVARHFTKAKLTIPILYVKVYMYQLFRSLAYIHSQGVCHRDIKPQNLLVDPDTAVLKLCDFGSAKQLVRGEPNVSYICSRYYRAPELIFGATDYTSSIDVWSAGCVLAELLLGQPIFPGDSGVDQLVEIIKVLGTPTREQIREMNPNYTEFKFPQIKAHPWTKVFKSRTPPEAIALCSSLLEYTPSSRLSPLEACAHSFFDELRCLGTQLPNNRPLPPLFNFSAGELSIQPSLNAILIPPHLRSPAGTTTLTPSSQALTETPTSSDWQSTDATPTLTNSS
T8 sequence (Q13464 whole entry): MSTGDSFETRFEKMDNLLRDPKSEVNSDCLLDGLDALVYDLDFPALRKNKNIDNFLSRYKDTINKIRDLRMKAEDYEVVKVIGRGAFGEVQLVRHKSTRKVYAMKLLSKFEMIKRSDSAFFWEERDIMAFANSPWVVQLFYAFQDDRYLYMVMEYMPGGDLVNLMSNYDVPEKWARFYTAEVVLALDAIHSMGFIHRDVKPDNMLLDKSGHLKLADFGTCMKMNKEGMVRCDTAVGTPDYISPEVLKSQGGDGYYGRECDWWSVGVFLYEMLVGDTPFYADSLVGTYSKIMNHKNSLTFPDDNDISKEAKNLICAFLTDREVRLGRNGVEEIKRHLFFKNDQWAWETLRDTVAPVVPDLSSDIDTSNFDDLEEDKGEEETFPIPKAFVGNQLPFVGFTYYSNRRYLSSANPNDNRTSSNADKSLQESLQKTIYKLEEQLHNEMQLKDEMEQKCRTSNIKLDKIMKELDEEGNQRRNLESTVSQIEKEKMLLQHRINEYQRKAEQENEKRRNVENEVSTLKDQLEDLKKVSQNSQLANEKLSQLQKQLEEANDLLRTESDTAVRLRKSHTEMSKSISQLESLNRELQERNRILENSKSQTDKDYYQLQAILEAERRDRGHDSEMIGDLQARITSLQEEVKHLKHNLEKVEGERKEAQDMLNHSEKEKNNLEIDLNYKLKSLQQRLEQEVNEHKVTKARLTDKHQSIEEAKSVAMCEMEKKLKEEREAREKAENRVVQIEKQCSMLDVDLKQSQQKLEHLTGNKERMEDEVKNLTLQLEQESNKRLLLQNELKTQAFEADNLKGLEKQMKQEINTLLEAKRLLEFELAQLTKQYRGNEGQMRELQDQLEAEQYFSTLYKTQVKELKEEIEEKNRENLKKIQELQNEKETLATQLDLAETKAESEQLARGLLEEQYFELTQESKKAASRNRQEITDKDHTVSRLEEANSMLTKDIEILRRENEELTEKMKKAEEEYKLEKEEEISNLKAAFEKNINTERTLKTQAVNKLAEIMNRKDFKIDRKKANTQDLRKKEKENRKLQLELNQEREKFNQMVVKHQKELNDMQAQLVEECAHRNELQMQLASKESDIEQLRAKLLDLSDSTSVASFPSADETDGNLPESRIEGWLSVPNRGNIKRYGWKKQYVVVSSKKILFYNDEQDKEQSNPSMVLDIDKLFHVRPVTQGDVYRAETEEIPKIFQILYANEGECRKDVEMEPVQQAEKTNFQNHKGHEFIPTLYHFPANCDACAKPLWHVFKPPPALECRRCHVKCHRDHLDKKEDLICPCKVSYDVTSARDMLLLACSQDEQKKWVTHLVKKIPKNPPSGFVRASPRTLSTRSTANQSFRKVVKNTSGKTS
T4 sequence (P49137 whole entry): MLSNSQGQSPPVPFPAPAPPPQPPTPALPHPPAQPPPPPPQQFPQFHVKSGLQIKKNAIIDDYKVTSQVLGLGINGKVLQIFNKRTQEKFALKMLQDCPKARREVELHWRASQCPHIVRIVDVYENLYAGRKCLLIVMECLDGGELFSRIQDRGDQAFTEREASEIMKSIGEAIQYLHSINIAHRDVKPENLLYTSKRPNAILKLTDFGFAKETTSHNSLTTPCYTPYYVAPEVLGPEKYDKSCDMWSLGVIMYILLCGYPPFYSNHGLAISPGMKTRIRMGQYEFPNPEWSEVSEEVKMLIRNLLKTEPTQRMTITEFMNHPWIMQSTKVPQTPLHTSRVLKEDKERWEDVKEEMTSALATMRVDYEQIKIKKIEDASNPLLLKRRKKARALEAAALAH
T9 sequence (Q9NYA1 whole entry): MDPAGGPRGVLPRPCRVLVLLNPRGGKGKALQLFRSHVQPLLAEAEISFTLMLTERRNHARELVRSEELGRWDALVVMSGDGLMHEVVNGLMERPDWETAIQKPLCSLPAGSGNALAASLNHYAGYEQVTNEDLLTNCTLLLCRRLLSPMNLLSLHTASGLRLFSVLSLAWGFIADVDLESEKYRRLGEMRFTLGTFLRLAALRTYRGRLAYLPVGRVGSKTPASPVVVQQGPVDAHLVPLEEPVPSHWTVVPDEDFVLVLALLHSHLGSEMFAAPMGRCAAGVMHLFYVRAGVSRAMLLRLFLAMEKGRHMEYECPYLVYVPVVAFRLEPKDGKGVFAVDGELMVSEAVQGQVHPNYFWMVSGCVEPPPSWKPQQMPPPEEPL
T6 sequence (Q9H4B4 whole entry): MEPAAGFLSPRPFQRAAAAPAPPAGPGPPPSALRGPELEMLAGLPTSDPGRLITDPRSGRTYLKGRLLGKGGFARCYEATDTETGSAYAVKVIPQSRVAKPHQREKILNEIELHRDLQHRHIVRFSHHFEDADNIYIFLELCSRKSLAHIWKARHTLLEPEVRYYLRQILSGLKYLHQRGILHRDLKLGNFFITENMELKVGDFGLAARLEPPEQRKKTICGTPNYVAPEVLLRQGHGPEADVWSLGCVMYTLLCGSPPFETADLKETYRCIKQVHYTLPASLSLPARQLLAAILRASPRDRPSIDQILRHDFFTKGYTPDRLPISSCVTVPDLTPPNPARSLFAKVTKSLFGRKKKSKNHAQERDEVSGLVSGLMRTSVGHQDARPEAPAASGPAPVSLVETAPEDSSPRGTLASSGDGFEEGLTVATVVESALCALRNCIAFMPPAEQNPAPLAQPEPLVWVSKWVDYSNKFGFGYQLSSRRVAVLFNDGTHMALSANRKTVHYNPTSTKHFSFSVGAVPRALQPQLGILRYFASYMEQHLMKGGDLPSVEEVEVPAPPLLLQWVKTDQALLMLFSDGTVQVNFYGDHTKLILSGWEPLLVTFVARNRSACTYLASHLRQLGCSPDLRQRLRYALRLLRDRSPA

| SMILES | inhibition at 1 µM [1] [%] | inhibition at 10 µM [1] [%] | inhibition at 1 µM [2] [%] | inhibition at 10 µM [2] [%] | inhibition at 1 µM [3] [%] | inhibition at 10 µM [3] [%] | inhibition at 1 µM [4] [%] | inhibition at 10 µM [4] [%] | inhibition at 1 µM [5] [%] | inhibition at 10 µM [5] [%] | inhibition at 1 µM [6] [%] | inhibition at 10 µM [6] [%] | inhibition at 1 µM [7] [%] | inhibition at 10 µM [7] [%] | inhibition at 1 µM [8] [%] | inhibition at 10 µM [8] [%] | inhibition at 1 µM [9] [%] | inhibition at 10 µM [9] [%] |
| --- | --- | --- | --- | --- | --- | --- | --- | --- | --- | --- | --- | --- | --- | --- | --- | --- | --- | --- |
| COc1ccc2c(c1OC)c(=O)n1c3ccc(O)cc3c3ccnc2c31 [MW01, 5-Hydroxy-10,11-dimethoxy-9H-benzo[c]indolo[3,2,1-ij][1,5]naphthyridin-9-one] | 0 | 6 | 4 | 8 | 25 | 55 | 3 | 3 | 5 | 3 | 6 | 23 | 47 | 72 | 0 | 13 | -7 | -3 |
| COc1ccc2cc3c(N)nn(C(=O)c4cccc(N(C)C)c4)c3nc2c1 [MW05, (3-Amino-7-methoxypyrazolo[3,4-b]quinolin-1-yl)-[3-(dimethylamino)phenyl]methanone] | -1 | -6 | 1 | -8 | 3 | 18 | 4 | -6 | 6 | 6 | 5 | 12 | 7 | 0 | -4 | -5 | -2 | 1 |
